Results published in patent US12564595B2, “Prophylactic and therapeutic pharmaceutical agent for HIV infectious diseases characterized by comprising combination of integrase inhibitor and anti-HIV agent” (Shionogi & Co., Ltd., priority 2019, dated 2026).
pEC50: −log10 of the molar value.

Legend:
[1] = system: HIV; assay: microbe, parasite or virus in culture; format: cell-based; settings: Human immunodeficiency virus 1, MT4, 96 h, read-out: EC50 (50% HIV inhibition concentration), MT-4 cells, HIV, cultured four days, MTT; compounds of formula (I) of (A)
Protocol: A serial dilution series of test samples was prepared in 96-well microplates (50 μL/well).
100 μL/well in each case were dispensed onto plates having test samples of 2.5×10^5/mL MT-4 cell suspension, and HIV virus solution was then dispensed thereto in the amount of 50 μL/well. Mixing was performed using a plate mixer and culturing was performed for four days in a CO2 incubator. MTT (3-(4,5-dimethylthiazol-2-yl)-2,5-diphenyltetrazolium bromide) liquid was dispensed into each well in the amount of 30 μL in each case. The reaction was conducted for 1 h in a CO2 incubator. 150 μL of supernatant were removed from each well, taking care not to aspirate any cells. 150 μL of cell solution were added, and thorough mixing was performed with a plate mixer until all the cells had been dissolved. The optical absorbance of the mixed plates was measured at two wavelengths: 560 nm/690 nm, with a microplate reader.

[2] = system: HIV mutant strain 1 (E138K/G140S/Q148H/N155H); assay: Test Example 2: resistance evaluation test (HeLa-CD4 reporter), mutant strain 1; format: cell-based; settings: FC=EC50 of mutant strain/EC50 of wild strain; HeLa-CD4 cells
Protocol: (§1) A serial dilution series of test samples in 96-well microplates was prepared (50 […]).
(§2) 2.5×10^4/mL of HeLa-CD4 cell suspension was dispensed into each of the microplates containing test sample, in the amount of 100 μL/well, and HIV virus liquid (wild strain and mutant strain) was then dispensed in an amount of 50 μL/well. Mixing was performed using a plate mixer and culturing was performed for three days in a CO2 incubator. After removing the cultured supernatant of each well by suction, 100 μL of the cell solution buffer in the reporter measurement kit was dispensed thereto, and freezing was conducted in a refrigerator (−80° C.). The plates frozen in the refrigerator were defrosted at room temperature, then mixed using a plate mixer and centrifuged for 5 min at 1,200 rpm. The supernatant of each well was divided to 96-well microplates (BLACK) in the amount of 20 μL in each case. The chemiluminescence reagent in the reporter assay kit was dispensed in the amount of 100 μL in each case, and, after reacting for about 1 h at room temperature, the amount of luminescence was measured using a MicroBeta TRILUX.
(§3) The degree of resistance (fold change (FC)) of each mutant strain was also calculated using the following formula. FC=EC50 of mutant strain/EC50 of wild strain (Results)
(§4) The results of the example compounds relating to formula (I) of (A) are shown below. The […] in respect of mutant strain 1 (E138K/G140S/Q148H/N155H) and the FC in respect of mutant strain 2 (E92Q/E138T/G140S/Q148H) are shown in the Table.

[3] = Test Example 8: metabolic stability test; format: in vitro ADME, human; settings: pooled human liver microsomes, 30 min at 37° C., NADPH, compound concentration 0.5 μmol/L
Protocol: The extent of metabolization of the compound according to the present invention in the liver was evaluated by reacting commercially available pooled human liver microsomes with the compound according to the present invention for a fixed time and calculating the remaining percentage by comparing the reaction sample with an unreacted sample.
The reaction (oxidative reaction) was conducted for 0 min or 30 min at 37° C. in the presence of 1 mmol/L of NADPH, in a 0.2 mL buffer solution containing 0.5 mg of human liver microsome protein/mL (50 mmol/L Tris-HCl pH 7.4, 150 mmol/L potassium chloride, 10 mmol/L magnesium chloride). After the reaction, 50 μL of reaction liquid were added to 100 μL of methanol/acetonitrile=1/1 (v/v) solution, mixed, and centrifuged for 15 minutes at 3000 rpm. The compound according to the present invention in the centrifuged supernatant was quantified using LC/MS/MS or solid phase extraction (SPE)/MS; the residual amount of the compound according to the present invention after the reaction was calculated, taking the amount of the compound at the 0 min reaction point as 100%.

[4] = system: HIV mutant strain 2 (E92Q/E138T/G140S/Q148H); assay: Test Example 2: resistance evaluation test (HeLa-CD4 reporter), mutant strain 2; format: cell-based; settings: FC=EC50 of mutant strain/EC50 of wild strain; HeLa-CD4 cells
Protocol: as §1, §2, §3, §4

SMILES: CCN1C(=O)c2c(O)c(=O)c(-c3nnc(Cc4c(F)cc(F)cc4F)s3)cn2N2C[C@@H]3CC[C@@H](C3)[C@@H]12 [II-131]
- pEC50 [1]: 9.18
- FC in respect of mutant strain 1 (E138K/G140S/Q148H/N155H) [2]: 2.3
- Remaining percentage [3]: 83.4%
- FC in respect of mutant strain 2 (E92Q/E138T/G140S/Q148H) [4]: 3.5

SMILES: CCN1C(=O)c2c(O)c(=O)c(-c3nnc(Cc4c(F)cc(F)cc4F)s3)cn2N2C[C@@H](C)C[C@@H]12 [II-112]
- pEC50 [1]: 8.72
- FC in respect of mutant strain 1 (E138K/G140S/Q148H/N155H) [2]: 4.7
- Remaining percentage [3]: 90.5%
- FC in respect of mutant strain 2 (E92Q/E138T/G140S/Q148H) [4]: 7

SMILES: CCN1C(=O)c2c(O)c(=O)c(-c3nnc(Cc4c(F)cc(F)cc4F)s3)cn2N2C[C@@H]3CC[C@@H](O3)[C@@H]12 [II-126]
- pEC50 [1]: 9.22
- FC in respect of mutant strain 1 (E138K/G140S/Q148H/N155H) [2]: 17
- Remaining percentage [3]: 97.2%
- FC in respect of mutant strain 2 (E92Q/E138T/G140S/Q148H) [4]: 20

SMILES: CCN1C(=O)c2c(O)c(=O)c(C(=O)NCc3ccc(F)cc3F)cn2N2CC[C@@H](C)C[C@@H]12 [II-068]
- pEC50 [1]: 9.60
- FC in respect of mutant strain 1 (E138K/G140S/Q148H/N155H) [2]: 7
- Remaining percentage [3]: 82.9%
- FC in respect of mutant strain 2 (E92Q/E138T/G140S/Q148H) [4]: 4.2

SMILES: C[C@@H]1CCC[C@H]2N(C)C(=O)c3c(O)c(=O)c(-c4nnc(Cc5ccc(F)cc5F)s4)cn3N12 [II-124]
- pEC50 [1]: 8.46
- FC in respect of mutant strain 1 (E138K/G140S/Q148H/N155H) [2]: 6.8
- Remaining percentage [3]: 103%
- FC in respect of mutant strain 2 (E92Q/E138T/G140S/Q148H) [4]: 11

SMILES: CCN1C(=O)c2c(O)c(=O)c(-c3nnc(Cc4c(F)cc(F)cc4F)s3)cn2N2CC[C@@H](C)C[C@@H]12 [II-143]
- pEC50 [1]: 8.77
- FC in respect of mutant strain 1 (E138K/G140S/Q148H/N155H) [2]: 3
- Remaining percentage [3]: 82.5%
- FC in respect of mutant strain 2 (E92Q/E138T/G140S/Q148H) [4]: 3.6

SMILES: C[C@@H]1CCN2[C@@H](C1)N(C)C(=O)c1c(O)c(=O)c(-c3nnc(Cc4c(F)cc(F)cc4F)s3)cn12 [II-144]
- pEC50 [1]: 9.16
- FC in respect of mutant strain 1 (E138K/G140S/Q148H/N155H) [2]: 6.1
- Remaining percentage [3]: 94.2%
- FC in respect of mutant strain 2 (E92Q/E138T/G140S/Q148H) [4]: 6.1

SMILES: C[C@@H]1CC[C@H]2N(C)C(=O)c3c(O)c(=O)c(-c4nnc(Cc5ccc(F)cc5F)s4)cn3N12 [II-113]
- pEC50 [1]: 9.18
- FC in respect of mutant strain 1 (E138K/G140S/Q148H/N155H) [2]: 7.2
- Remaining percentage [3]: 85.3%
- FC in respect of mutant strain 2 (E92Q/E138T/G140S/Q148H) [4]: 6.5

SMILES: CCN1C(=O)c2c(O)c(=O)c(-c3nnc(Cc4ccc(F)cc4F)s3)cn2N2C[C@@H]3CC[C@@H](C3)[C@@H]12 [II-130]
- pEC50 [1]: 9.18
- FC in respect of mutant strain 1 (E138K/G140S/Q148H/N155H) [2]: 2.5
- Remaining percentage [3]: 92.9%
- FC in respect of mutant strain 2 (E92Q/E138T/G140S/Q148H) [4]: 3.9

SMILES: CCN1C(=O)c2c(O)c(=O)c(C(=O)NCc3c(F)cc(F)cc3F)cn2N2[C@H](COC)CC[C@@H]12 [II-093]
- pEC50 [1]: 9.66
- FC in respect of mutant strain 1 (E138K/G140S/Q148H/N155H) [2]: 49
- Remaining percentage [3]: 96.1%
- FC in respect of mutant strain 2 (E92Q/E138T/G140S/Q148H) [4]: 25

SMILES: CCN1C(=O)c2c(O)c(=O)c(-c3nnc(Cc4cc(F)c(F)cc4F)s3)cn2N2C[C@@H]3CC[C@@H](C3)[C@@H]12 [II-148]
- pEC50 [1]: 8.28
- FC in respect of mutant strain 1 (E138K/G140S/Q148H/N155H) [2]: 8.3
- Remaining percentage [3]: 71.7%
- FC in respect of mutant strain 2 (E92Q/E138T/G140S/Q148H) [4]: 6.6

SMILES: COC[C@@H]1CC[C@H]2N(C)C(=O)c3c(O)c(=O)c(-c4nnc(Cc5c(F)cc(F)cc5F)s4)cn3N12 [II-151]
- pEC50 [1]: 9.43
- FC in respect of mutant strain 1 (E138K/G140S/Q148H/N155H) [2]: 27
- Remaining percentage [3]: 94.6%
- FC in respect of mutant strain 2 (E92Q/E138T/G140S/Q148H) [4]: 17

SMILES: CN1C(=O)c2c(O)c(=O)c(-c3nnc(Cc4ccc(F)cc4F)s3)cn2N2CCOC[C@@H]12 [II-102]
- pEC50 [1]: 8.89
- FC in respect of mutant strain 1 (E138K/G140S/Q148H/N155H) [2]: 25
- Remaining percentage [3]: 106%
- FC in respect of mutant strain 2 (E92Q/E138T/G140S/Q148H) [4]: 22

SMILES: CCN1C(=O)c2c(O)c(=O)c(-c3nnc(Cc4ccc(F)cc4F)s3)cn2N2C[C@@H](C)CC[C@@H]12 [II-155]
- pEC50 [1]: 9.52
- FC in respect of mutant strain 1 (E138K/G140S/Q148H/N155H) [2]: 5.2
- Remaining percentage [3]: 93%
- FC in respect of mutant strain 2 (E92Q/E138T/G140S/Q148H) [4]: 5.1
